Reference: US20260347348A1, “JAK1/JAK2/TYK2 Inhibitors For Topical Treatment of Dermatological Diseases” (Hangzhou Highlightll Pharmaceutical Co., Ltd, priority 2022, published 2026)
Like-named read-outs stand apart in the source and are kept apart here.

Experiments:
[1] = system: psoriasis; conditions: cited from earlier work
[2] = Mini-pig dermal pharmacokinetic study; format: in vivo, Guangxi Bama mini-pigs; conditions: for AUC(0-t): 15 mg/cm^2, topical ointment
Method: The aim of this study was to obtain the distribution of test articles in mini-pig after topical administration. Test articles were formulated as ointment and then applied to 2 female Guangxi Bama mini-pigs (8-12 kg) (Wujiang Tian yu Biological Technology). Briefly, total area estimated to be approximately 10% of the total body surface area were clipped free of hair before treatment using electric clippers. The test article was dosed evenly to the skin with 15 mg/cm^2 at 0 h, 8 h and 24 h. Test articles were removed before next dosing. Blood and skin samples were collected at 24 h (pre-dosing), 25 h, 28 h, 32 h, 48 h and 96 h. The blood was taken via peripheral vein of each animal into pre-chilled tube containing potassium (K2) EDTA as anticoagulant. Exposed skin was washed using ethanol and then wiped with dry cotton swab before skin sample collection. Eight samples of dosing skin were drilled with a biopsy punch (0.7 cm diameter) for each time point. Epidermis and dermis were separated and the eight samples from the same time point were pooled together and homogenized. All the above samples and homogenate were quantified by LC-MS/MS analysis.

[3] = biological target: T1, TYK2 (Homo sapiens, UniProt P29597); experiment: TYK2 biochemical test (33P-ATP filter binding kinase assay); conditions: room temperature, 2 hours
T1 sequence (P29597 whole entry): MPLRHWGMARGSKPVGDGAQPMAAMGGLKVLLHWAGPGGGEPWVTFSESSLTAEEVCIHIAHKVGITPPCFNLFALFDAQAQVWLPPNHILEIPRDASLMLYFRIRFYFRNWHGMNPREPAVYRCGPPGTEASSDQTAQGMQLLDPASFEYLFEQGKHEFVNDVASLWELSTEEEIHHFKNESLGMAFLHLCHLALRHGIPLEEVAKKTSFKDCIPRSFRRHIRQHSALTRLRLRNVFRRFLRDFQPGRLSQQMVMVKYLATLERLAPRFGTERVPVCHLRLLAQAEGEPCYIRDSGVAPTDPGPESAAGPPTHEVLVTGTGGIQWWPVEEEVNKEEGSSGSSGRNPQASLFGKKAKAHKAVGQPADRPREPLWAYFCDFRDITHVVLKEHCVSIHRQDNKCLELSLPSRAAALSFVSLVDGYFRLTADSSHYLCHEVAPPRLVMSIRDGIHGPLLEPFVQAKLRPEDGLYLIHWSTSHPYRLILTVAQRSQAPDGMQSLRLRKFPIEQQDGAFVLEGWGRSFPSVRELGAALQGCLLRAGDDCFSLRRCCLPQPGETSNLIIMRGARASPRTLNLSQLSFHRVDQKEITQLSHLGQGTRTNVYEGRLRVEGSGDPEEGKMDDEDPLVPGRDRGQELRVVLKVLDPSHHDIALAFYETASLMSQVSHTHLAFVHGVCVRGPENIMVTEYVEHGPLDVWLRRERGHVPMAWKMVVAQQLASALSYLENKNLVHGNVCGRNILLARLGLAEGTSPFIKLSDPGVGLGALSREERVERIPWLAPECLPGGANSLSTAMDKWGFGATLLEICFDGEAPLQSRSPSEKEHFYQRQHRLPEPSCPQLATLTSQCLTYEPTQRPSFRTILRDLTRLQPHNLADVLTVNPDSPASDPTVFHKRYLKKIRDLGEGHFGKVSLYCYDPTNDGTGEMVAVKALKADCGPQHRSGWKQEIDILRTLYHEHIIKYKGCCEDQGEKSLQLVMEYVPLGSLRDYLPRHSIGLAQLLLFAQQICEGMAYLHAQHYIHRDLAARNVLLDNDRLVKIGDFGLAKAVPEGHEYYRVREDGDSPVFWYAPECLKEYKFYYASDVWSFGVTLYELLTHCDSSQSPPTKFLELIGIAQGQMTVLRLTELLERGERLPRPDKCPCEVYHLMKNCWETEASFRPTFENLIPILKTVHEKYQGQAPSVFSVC
Method: (§1) The tests were conducted by Reaction Biology Corp, Malvern, PA (Anastassiadis et al. Nat Biotechnol. 2011; 29(11):1039-45). The step is briefly described as follows.
(§2) Basic reaction buffer: 20 mM Hepes (pH 7.5), 10 mM MgCl2, 1 mM EGTA, 0.02% Brij35, 0.02 mg/ml BSA, 0.1 mM Na3VO4, 2 mM DTT and 1% DMSO. The required cofactor was added to each kinase reaction respectively.
(§3) • 1. Preparing the designated substrate in the newly prepared basic reaction buffer; • 2. Transferring the required cofactor to the above matrix solution; • 3. Transferring the designated kinase to the substrate solution and mixing well slightly; • 4. Transferring a compound of formulae I-III in DMSO to the kinase reaction mixture with Acoustic technique (Echo550; nanoliter range), culturing for 20 minutes at room temperature; • 5. Introducing ^33P-ATP (specific activity: 10 μCi/μl) to the reaction mixture to trigger a reaction; • 6. Culturing at room temperature and conducting a kinase reaction for 2 hours; • 7. Plotting the reaction on P81 ion exchange paper; • 8. Testing the kinase activity with a filter binding assay.

[4] = Human liver microsome stability assay; format: in vitro ADME; conditions: liver microsomes
Method: The assay was conducted following procedures as below: • 1. Prepared 8 sample plates of 96-well plates, named as T0, T3, T6, T9, T15, T30, NCF30, BLANK. • 2. Dispensed 100 μl/well human microsomes to each plate. • 3. Dispensed 2 μL compound or control working solution/well to each plate (T0, T3, T6, T9, T15, T30, NCF30) except matrix blank and incubation plates at 37° C. for about 10 min. The final concentration of test compound was 1 μM. For T0, added 600 (μL/well) of cold stop solution immediately. • 4. Added 98 μL 100 mM potassium phosphate buffer/well to NCF30 plate, incubated at 37° C., start reaction. • 5. After pre-warming, dispensed NADPH regenerating system to 96-well plate as reservoir according to the plate map. Then added 98 μL/well to every plate (Blank, T30, T15, T9, T6, T3, T0) to start reaction. • 6. The reaction was stopped by the addition of 600 μl of cold stop solution at 0, 3, 6, 9, 15 and 30 minutes. Samples were shaked for 10 min and then centrifuged at 3220 g for 20 min. The supernatant was taken from each well and diluted with dilution solution before being analyzed by LC/MS/MS. • 7. […]
The slope value, k, was determined by linear regression of the natural logarithm of the remaining percentage of the parent drug vs. incubation time curve. The in vitro t1/2 was determined from the slope value: […]

[5] = biological target: T1, TYK2; experiment: TYK2 cellular ELISA assay using NK92 cells (IL-12 and IL-18 stimulated IFNγ excretion); format: cell-based; conditions: IL-12 2 ng/ml and IL-18 5 ng/ml, 24 hours
Method: Purpose: test cellular TYK2 activity using IL-12 and IL-18 stimulated IFNγ excretion assay in NK92 cells.
• 1. Replace NK92 cell media with IL-2 by media without IL-2, maintain overnight; • 2. Plate NK92 cells to 96-well plate at density of ~150,000 cell/well; • 3. Add different concentrations of test article to wells, maintain in incubator at 37° C. and 5% CO2 for 1 hour; • 4. Add IL-12 (final concentration: 2 ng/ml) and IL-18 (final concentration: 5 ng/ml) to stimulate for 24 hours in the above incubator; • 5. After 24 hours, centrifuge at 2000 rpm for 5 min, take the supernatant and analyze according to instructions of the ELISA kit.

[6] = biological target: T2, JAK1 (Homo sapiens, UniProt P23458); experiment: JAK1 cellular ELISA assay using PBMC cells (IL-6 stimulated STAT3 phosphorylation); format: cell-based; conditions: IL-6 100 ng/ml, 25 min
T2 sequence (P23458 whole entry): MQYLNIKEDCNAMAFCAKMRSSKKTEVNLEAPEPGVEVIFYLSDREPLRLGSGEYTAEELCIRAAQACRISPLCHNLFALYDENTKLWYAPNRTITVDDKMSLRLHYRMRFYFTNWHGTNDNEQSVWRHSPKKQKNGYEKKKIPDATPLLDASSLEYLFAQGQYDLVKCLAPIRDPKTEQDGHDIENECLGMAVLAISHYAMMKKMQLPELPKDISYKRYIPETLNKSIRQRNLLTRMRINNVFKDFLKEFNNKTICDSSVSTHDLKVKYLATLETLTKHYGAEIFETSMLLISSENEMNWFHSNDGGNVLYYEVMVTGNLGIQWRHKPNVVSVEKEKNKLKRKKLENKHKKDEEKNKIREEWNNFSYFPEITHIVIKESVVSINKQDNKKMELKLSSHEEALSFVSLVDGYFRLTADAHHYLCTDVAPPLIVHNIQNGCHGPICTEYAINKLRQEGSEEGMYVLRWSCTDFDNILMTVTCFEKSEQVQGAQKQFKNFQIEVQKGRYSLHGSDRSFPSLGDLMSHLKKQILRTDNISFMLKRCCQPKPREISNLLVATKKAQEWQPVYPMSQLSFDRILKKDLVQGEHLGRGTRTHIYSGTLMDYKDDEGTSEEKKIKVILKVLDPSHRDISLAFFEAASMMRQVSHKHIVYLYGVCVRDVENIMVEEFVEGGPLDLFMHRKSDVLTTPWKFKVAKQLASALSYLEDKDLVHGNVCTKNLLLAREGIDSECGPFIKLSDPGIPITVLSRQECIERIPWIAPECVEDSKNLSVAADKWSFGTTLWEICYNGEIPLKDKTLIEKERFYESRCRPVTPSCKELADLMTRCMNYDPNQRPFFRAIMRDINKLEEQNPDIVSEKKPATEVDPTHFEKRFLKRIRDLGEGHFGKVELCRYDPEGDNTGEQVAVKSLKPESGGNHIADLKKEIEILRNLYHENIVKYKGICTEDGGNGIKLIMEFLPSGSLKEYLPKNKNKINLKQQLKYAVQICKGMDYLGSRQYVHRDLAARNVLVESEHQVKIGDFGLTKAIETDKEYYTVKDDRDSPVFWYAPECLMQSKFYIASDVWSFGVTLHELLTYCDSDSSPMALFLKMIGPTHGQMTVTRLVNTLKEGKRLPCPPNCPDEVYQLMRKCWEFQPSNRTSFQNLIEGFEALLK
Method: Purpose: test cellular JAK1 activity using the IL-6 stimulated STAT3 phosphorylation assay in PBMC cells.
• 1. Plate PBMC cells to 96-well plate at density of ~300,000 cell/well; • 2. Add different concentrations of test article to wells, maintain in incubator at 37° C. and 5% CO2 for 1 hour; • 3. Add IL-6 (final concentration: 100 ng/ml) to stimulate for 25 min in the above incubator; • 4. After stimulation, transfer the suspension to 1.5 mL tube, centrifuge at 200 g for 5 min, collect cells, add 100 μL 1× lysate, lyse on ice for 1 hour; • 5. Centrifuge at 4° C. and 12000 rpm for 10 min, take the supernatant and analyze according to instructions of the ELISA kit.

[7] = system: TYK2/JAK1/JAK2; experiment: TYK2/JAK1/JAK2 biochemical tests, comparative summary
Method: as §1, §2, §3

[8] = biological target: T2, JAK1; experiment: JAK1 biochemical test (33P-ATP filter binding kinase assay); conditions: room temperature, 2 hours
Method: as §1, §2, §3

[9] = biological target: JAK2 (Homo sapiens, UniProt O60674); experiment: JAK2 biochemical test (33P-ATP filter binding kinase assay); conditions: room temperature, 2 hours
Sequence of JAK2 (O60674 whole entry): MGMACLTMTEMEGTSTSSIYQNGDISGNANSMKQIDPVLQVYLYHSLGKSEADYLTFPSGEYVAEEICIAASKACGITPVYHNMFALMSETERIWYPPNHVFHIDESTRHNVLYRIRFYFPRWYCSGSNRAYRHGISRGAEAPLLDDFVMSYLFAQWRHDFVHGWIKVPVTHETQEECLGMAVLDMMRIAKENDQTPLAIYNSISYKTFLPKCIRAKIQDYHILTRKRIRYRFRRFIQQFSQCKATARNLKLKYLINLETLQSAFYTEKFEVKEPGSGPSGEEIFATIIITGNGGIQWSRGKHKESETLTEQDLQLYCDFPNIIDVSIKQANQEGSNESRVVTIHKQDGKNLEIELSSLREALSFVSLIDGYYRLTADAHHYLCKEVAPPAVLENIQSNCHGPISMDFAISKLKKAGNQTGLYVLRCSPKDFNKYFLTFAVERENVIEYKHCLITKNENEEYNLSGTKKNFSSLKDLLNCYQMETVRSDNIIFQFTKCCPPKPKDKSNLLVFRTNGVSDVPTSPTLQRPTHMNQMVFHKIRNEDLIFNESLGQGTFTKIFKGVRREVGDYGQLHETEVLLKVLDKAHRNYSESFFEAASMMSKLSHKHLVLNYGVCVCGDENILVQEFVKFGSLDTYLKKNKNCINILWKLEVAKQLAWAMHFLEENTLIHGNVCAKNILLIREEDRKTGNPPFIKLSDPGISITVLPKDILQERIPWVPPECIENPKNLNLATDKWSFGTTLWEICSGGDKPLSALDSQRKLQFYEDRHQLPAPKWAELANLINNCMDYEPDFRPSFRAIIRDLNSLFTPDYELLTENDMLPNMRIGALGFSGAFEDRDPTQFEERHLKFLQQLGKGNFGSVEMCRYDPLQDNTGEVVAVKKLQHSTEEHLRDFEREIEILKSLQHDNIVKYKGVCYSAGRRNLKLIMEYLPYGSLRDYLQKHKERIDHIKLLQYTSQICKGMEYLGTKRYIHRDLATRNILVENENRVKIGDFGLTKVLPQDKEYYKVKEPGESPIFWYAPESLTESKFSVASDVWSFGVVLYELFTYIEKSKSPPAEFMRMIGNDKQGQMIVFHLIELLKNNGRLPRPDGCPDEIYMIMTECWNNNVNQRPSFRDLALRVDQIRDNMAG
Method: as §1, §2, §3

[10] = biological target: T3, JAK3 (Homo sapiens, UniProt P52333); experiment: JAK3 biochemical test (33P-ATP filter binding kinase assay); conditions: room temperature, 2 hours
T3 sequence (P52333 1-1124): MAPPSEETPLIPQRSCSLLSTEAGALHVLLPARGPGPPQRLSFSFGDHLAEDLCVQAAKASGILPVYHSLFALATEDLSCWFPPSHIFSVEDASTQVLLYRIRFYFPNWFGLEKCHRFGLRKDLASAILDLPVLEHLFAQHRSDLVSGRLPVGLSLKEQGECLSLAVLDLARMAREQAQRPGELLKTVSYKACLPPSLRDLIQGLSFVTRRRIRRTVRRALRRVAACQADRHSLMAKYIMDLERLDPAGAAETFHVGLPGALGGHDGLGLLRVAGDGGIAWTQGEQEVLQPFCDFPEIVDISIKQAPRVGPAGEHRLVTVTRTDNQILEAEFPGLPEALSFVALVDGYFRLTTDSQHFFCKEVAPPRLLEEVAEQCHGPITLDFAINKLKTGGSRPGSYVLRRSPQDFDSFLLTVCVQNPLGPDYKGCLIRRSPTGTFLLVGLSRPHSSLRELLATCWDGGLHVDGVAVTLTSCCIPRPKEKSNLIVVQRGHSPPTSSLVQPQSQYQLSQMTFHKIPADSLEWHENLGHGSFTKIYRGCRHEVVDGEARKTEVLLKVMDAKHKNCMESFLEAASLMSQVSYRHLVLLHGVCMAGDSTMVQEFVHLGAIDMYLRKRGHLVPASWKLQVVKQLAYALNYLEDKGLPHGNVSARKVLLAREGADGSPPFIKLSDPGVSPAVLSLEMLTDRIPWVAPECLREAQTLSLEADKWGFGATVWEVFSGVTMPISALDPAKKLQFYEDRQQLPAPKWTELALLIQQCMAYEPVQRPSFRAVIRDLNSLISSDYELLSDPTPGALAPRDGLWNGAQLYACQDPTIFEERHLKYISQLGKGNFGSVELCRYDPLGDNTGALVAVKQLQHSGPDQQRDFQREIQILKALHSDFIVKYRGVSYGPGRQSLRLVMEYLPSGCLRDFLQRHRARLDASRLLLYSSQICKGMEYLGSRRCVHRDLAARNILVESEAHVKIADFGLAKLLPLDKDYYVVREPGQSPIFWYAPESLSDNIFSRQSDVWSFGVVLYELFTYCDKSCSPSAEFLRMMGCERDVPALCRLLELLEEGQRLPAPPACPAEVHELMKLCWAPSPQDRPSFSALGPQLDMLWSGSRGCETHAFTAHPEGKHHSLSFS
Method: as §1, §2, §3

[11] = topical formulation, 1.2-37.6 g per application, twice a day; cited from earlier work

Question: For `CNC(=O)c1nnc(NC(=O)C2CC2)cc1Nc1cccc(-c2ncn(C)n2)c1OC` [deucravacitinib], which “Phase 2 and Phase 3 results in patients with psoriasis” value [1] is on record?
Answer: positive Phase 2 and Phase 3 results

Question: Which results are given for `Cc1cnc(Nc2cnn(C)c2)nc1-c1cnn([C@H](CC#N)C2CCCC2)c1` [Compound 4, (R)-3-cyclopentyl-3-(4-(5-methyl-2-((1-methyl-1H-pyrazol-4-yl)amino)pyrimidin-4-yl)-1H-pyrazol-1-yl) propanenitrile]?
Answer: AUC(0-t) ([2]; minipig, plasma, topical or ocular, 15 mg/cm^2 at 0 h, 8 h and 24 h, plasma, read-out: Plasma AUC0-last): 0.103 µg·h/mL; AUC(0-t) ([2]; minipig, topical or ocular, 15 mg/cm^2 at 0 h, 8 h and 24 h, dermis, read-out: Dermis AUC0-last): 517 µg·h/mL; AUC(0-t) ([2]; minipig, topical or ocular, 15 mg/cm^2 at 0 h, 8 h and 24 h, epidermis, read-out: Epidermis AUC0-last): 3520 µg·h/mL; Kp ([2]; minipig, topical or ocular, topical ointment, 15 mg/cm^2 at 0 h, 8 h and 24 h, read-out: Dermis/Plasma ratio (AUC)): 5020; systemic exposure and skin distribution (in words) ([2]; topical administration): minimal systemic exposure and enrichment in dermis and epidermis; IC50 [3]: < 1 nM; half-life at 1 µM [4]: 21 min; microsomal CLint at 1 µM ([4]; read-out: in vitro CLint(mic)): 65.9 µL/min/mg; IC50 [5]: < 10 nM; IC50 [6]: < 500 nM; TYK2/JAK1/JAK2 inhibition (in words) [7]: potent TYK2/JAK1/JAK2 inhibitors; IC50 [8]: < 1 nM

Question: For `CCS(=O)(=O)N1CC(CC#N)(n2cc(-c3nc(Nc4cnn(C)c4)ncc3C)cn2)C1` [Compound 18, 2-(1-(ethylsulfonyl)-3-(4-(5-methyl-2-((1-methyl-1H-pyrazol-4-yl)amino)pyrimidin-4-yl)-1H-pyrazol-1-yl)azetidin-3-yl)acetonitrile], which IC50 [9] is on record?
Answer: < 1 nM

Question: What about the IC50 [3] of the same molecule?
Answer: < 1 nM

Question: What about the IC50 [6] of the same molecule?
Answer: < 500 nM

Question: And the “TYK2/JAK1/JAK2 inhibition (in words)” value [7]?
Answer: potent TYK2/JAK1/JAK2 inhibitors

Question: What about the IC50 [10] of the same molecule?
Answer: > 10 nM

Question: And the IC50 [8]?
Answer: < 1 nM

Question: For `N#CC[C@H](C1CCCC1)n1cc(-c2ncnc3[nH]ccc23)cn1` [ruxolitinib], which Cmax [11] is on record?
Answer: 449 ± 883 nM
